Assays:
[1] = system: rabbit aorta rings; experiment: Vasorelaxant effect in vitro (rabbit aorta rings precontracted with phenylephrine); settings: Oryctolagus cuniculus, phenylephrine contraction, read-out: IC50 (concentration needed to reduce the magnitude of the phenylephrine contraction by 50%)
Method: B-1. Vasorelaxant Effect In Vitro
Rabbits are stunned by a blow to the neck and exsanguinated. The aorta is removed, freed from adhering tissue and divided into rings of width 1.5 mm, which are placed individually under prestress into 5 ml organ baths with carbogen-sparged Krebs-Henseleit solution at 37° C. having the following composition (each mM): sodium chloride: 119; potassium chloride: 4.8; calcium chloride dihydrate: 1; magnesium sulphate heptahydrate: 1.4; potassium dihydrogenphosphate: 1.2; sodium hydrogencarbonate: 25; glucose: 10. The contractile force is determined with Statham UC2 cells, amplified and digitalized using A/D transducers (DAS-1802 HC, Keithley Instruments Munich), and recorded in parallel on linear recorders.
To obtain a contraction, phenylephrine is added to the bath cumulatively in increasing concentration. After several control cycles, the substance to be studied is added in increasing dosage each time in every further run, and the magnitude of the contraction is compared with the magnitude of the contraction attained in the last preceding run. This is used to calculate the concentration needed to reduce the magnitude of the control value by 50% (IC50 value). The standard administration volume is 5 μl; the DMSO content in the bath solution corresponds to 0.1%.

[2] = biological target: human PDE 5 (Homo sapiens (Human), UniProt O76074); experiment: Inhibition of human phosphodiesterase 5 (PDE 5), SPA assay; format: biochemical; settings: PDE 5 preparation from human platelets, [8-3H]cGMP substrate
Method: B-6. Inhibition of Human Phosphodiesterase 5 (PDE 5)
PDE 5 preparations are obtained from human platelets by disruption (Microfluidizer®, 800 bar, 3 passes), followed by centrifugation (75 000 g, 60 min, 4° C.) and ion exchange chromatography of the supernatant on a Mono Q 10/10 column (linear sodium chloride gradient, elution with a 0.2-0.3M solution of sodium chloride in buffer (20 mM Hepes pH 7.2, 2 mM magnesium chloride). Fractions having PDE 5 activity are combined (PDE 5 preparation) and stored at −80° C.
To determine their in vitro action on human PDE 5, the test substances are dissolved in 100% DMSO and serially diluted. Typically, dilution series (1:3) from 200 μM to 0.091 μM are prepared (resulting final concentrations in the test: 4 μM to 0.0018 μM). In each case 2 μl of the diluted substance solutions are placed into the wells of microtitre plates (Isoplate-96/200 W; Perkin Elmer). Subsequently, 50 μl of a dilution of the above-described PDE 5 preparation are added. The dilution of the PDE 5 preparation is selected such that, during the later incubation, less than 70% of the substrate is converted (typical dilution: 1:100; dilution buffer: 50 mM tris/hydrochloric acid pH 7.5, 8.3 mM magnesium chloride, 1.7 mM EDTA, 0.2% BSA). The substrate, [8-^3H]cyclic guanosine-3′,5′-monophosphate (1 μCi/μl; Perkin Elmer) is diluted 1:2000 with assay buffer (50 mM tris/hydrochloric acid pH 7.5, 8.3 mM magnesium chloride, 1.7 mM EDTA) to a concentration of 0.0005 μCi/μl. By addition of 50 μl (0.025 μCi) of the diluted substrate, the enzyme reaction is finally started. The test mixtures are incubated at room temperature for 60 min and the reaction is stopped by adding 25 μl of a suspension of 18 mg/ml yttrium scintillation proximity beads in water (phosphodiesterase beads for SPA assays, RPNQ 0150, Perkin Elmer). The microtitre plates are sealed with a film and left to stand at room temperature for 60 min Subsequently, the plates are analysed for 30 s per well in a Microbeta scintillation counter (Perkin Elmer). IC50 values are determined using the graphic plot of the substance concentration against percentage PDE 5 inhibition.

[3] = system: recombinant guanylate cyclase reporter cell line; experiment: Effect on a recombinant guanylate cyclase reporter cell line; format: cell-based; settings: read-out: MEC (minimal effective concentration)
Method: B-2. Effect on a Recombinant Guanylate Cyclase Reporter Cell Line
The cellular action of the inventive compounds is determined on a recombinant guanylate cyclase reporter cell line as described in F. Wunder et al., Anal. Biochem. 339, 104-112 (2005).

IC50 [1]: 124 nM
IC50 [2]: 370 nM
Structure (SMILES): CC1(C)C(=O)Nc2nc(-c3nn(Cc4ccccc4F)c4ncncc34)nnc21 [Example 19, 3-[1-(2-Fluorobenzyl)-1H-pyrazolo[3,4-d]pyrimidin-3-yl]-7,7-dimethyl-5,7-dihydro-6H-pyrrolo[2,3-e][1,2,4]triazin-6-one]
minimal effective concentration [3]: 0.1 µM

From patent US9023849B2, “Substituted fused imidazoles and pyrazoles and use thereof” (Bayer Intellectual Property GmbH, priority 2012, dated 2015)
